System: Puccinia recondita
Experiment: Control of brown rust on wheat caused by Puccinia recondita (greenhouse, comparative)
Type: in vivo
Settings: 500 ppm spray to run-off one day before inoculation; % diseased leaf area, visually assessed; untreated control 90
Experimental: The spray solutions were prepared in several steps:
The stock solution were prepared: a mixture of acetone and/or dimethylsulfoxide and the wetting agent/emulsifier Wettol, which is based on ethoxylated alkylphenoles, in a relation (volume) solvent-emulsifier of 99 to 1 was added to 25 mg of the compound to give a total of 5 ml. Water was then added to total volume of 100 ml.
This stock solution was diluted with the described solvent-emulsifier-water mixture to the given concentration.
The first two developed leaves of pot-grown wheat seedling were sprayed to run-off with an aqueous suspension, containing 500 ppm of active ingredient as described below. The next day the plants were inoculated with spores of Puccinia recondita. To ensure the success the artificial inoculation, the plants were transferred to a humid chamber without light and a relative humidity of 95 to 99% and 20 to 24° C. for 24 h. Then the trial plants were cultivated for 6 days in a greenhouse chamber at 20-24° C. and a relative humidity between 65 and 70%. The extent of fungal attack on the leaves was visually assessed as % diseased leaf area.

## Cn1c(=O)c2sc3c(=O)n(C)c(=O)c3sc2c1=O
  Disease level (%): 80%

## COn1c(=O)c2sc3c(=O)n(OC)c(=O)c3sc2c1=O [I-2, 2.6-Dimethoxy-1H.5H-[1.4]dithiino[2,3-c:5.6-c′]dipyrrol-1.3.5.7(2H.6H)tetrone]
  Disease level (%): 45%

Source: patent US9253980B2 (priority 2011, dated 2016)
